Assay [1] relates to MCP5/L cells. Nature of the assay: Cell viability by trypan blue exclusion in medium deprived of serum and growth factors. The format is cell-based, mouse. Conditions: 4 days in medium deprived of serum and growth factors, FIG. 7.
Method: The growth factor dependent mouse mast cell line MCP5/L was maintained in the same medium described above. For cell viability assays, the cell suspension was mixed with the vital dye, trypan blue, and only the number of live cells was scored.
For cell viability assays, both the anitbody sensitization and the anitgen challenge were performed in RPMI medium supplemented with 0.5% BSA (Sigma) at 37° C. in a humidified incubator containing 5% CO2.
Cell viability measurement. Trypan blue exclusion assay was used in all of the cell survival experiments. In brief, cell suspension was mixed with the vital dye, trypan blue, and the number of live cells was scored.
In another assay the test system is A1 gene. Nature of the assay: RNAse Protection Assay (RPA) of A1 gene expression in MCP5/L mast cells. It is filed as cell-based, mouse.
The subject of assay [2] is MCP5/L cells. Particulars: IgE-receptor cross-linkage 30 min, various concentrations of EDTA, FIG. 8B.
Method: Activation of mast cells in vitro. For FcεRI-dependent activation, MCP5/L cells were resuspended at 1×10^6 cells/ml and sensitized using a monoclonal murine IgE anti-TNP (trinitrophenyl) (IgEl-b4, ATCC, Manassas, Va.) antibody (15% hybridoma supernatant) for 90 min. The cells were washed twice with warm medium, followed by challenge with 1 μg/ml TNP-BSA for time periods indicated. For cell viability assays, both the anitbody sensitization and the anitgen challenge were performed in RPMI medium supplemented with 0.5% BSA (Sigma) at 37° C. in a humidified incubator containing 5% CO2. […]
Measurement of release. […] The reaction was stopped by adding glycine (0.2 M, pH 10.7) into each well and the absorbance was measured. Percentage of β-hexosaminidase release is calculated as the absorbance of the supernatant over that of the combination of supernatant and lysate. […]
Effects of cold incubation and EDTA treatment on A1 induction and mast cell degranulation. […] (B) and (C) levels of β-hexosaminidase (β-hex) in the supernatants from either control cells or cells stimulated through IgE-receptor cross-linkage for 30 min, in the absence or presence of various concentrations of EDTA (B), or in cold incubation (C), were determined as a measurement of activation and de-granulation by an enzymatic colorimetric assay

Like-named read-outs stand apart in the source and are kept apart here.

Method for A1 gene: Activation of mast cells in vitro. For FcεRI-dependent activation, MCP5/L cells were resuspended at 1×10^6 cells/ml and sensitized using a monoclonal murine IgE anti-TNP (trinitrophenyl) (IgEl-b4, ATCC, Manassas, Va.) antibody (15% hybridoma supernatant) for 90 min. The cells were washed twice with warm medium, followed by challenge with 1 μg/ml TNP-BSA for time periods indicated. For cell viability assays, both the anitbody sensitization and the anitgen challenge were performed in RPMI medium supplemented with 0.5% BSA (Sigma) at 37° C. in a humidified incubator containing 5% CO2. For gene regulation studies, all the incubations were carried out in RPMI medium supplemented with 5% fetal bovine serum and antibiotics on a rocker platform. In some experiments, cells were cross-linked in the medium containing 1 mM EDTA or cells were incubated in ice-cold water during FcεRI cross-linking. Where indicated, various inhibitors were introduced to test their effects on A1 regulation after FcεRI cross-linking. These include bisindolylmaleimid (100 nM), wortmannin (100 nM), SB 203580 (pyridinylimidazole compound, inhibitor of p 38 mitogen-activated protein kinase) (1 μM), PD 98059 (2-(2-amino-3-methoxyphenyl)-4-oxo-4H-[1]benzopyran, inhibitor of mitogen-activated protein kinase Kinase-1 (MEK1)) (10 μM), genistein (1 μM), suramin (100 μM), cyclosporin A (2 μg/ml), dexamethasone (1 μM) and cycloheximide (10 μg/ml). Dexamethasone and suramin were added 14 hr and 24 hr, respectively, before IgE sensitization. All the other inhibitors were added at the same time as FcεRI aggregation. […]
Isolation of RNA and RNAse Protection Assay (RPA) analysis. […] Pixel intensity was determined using a phosphoimaging device. Levels of each gene transcript were quantified by MacBas V2.2 (Fuji Photo Film Co. Ltd., Japan). […]

Take `C[C@H](CCC(=O)O)C[C@H](C)C[C@H](C)C(=O)/C=C(\O)[C@H](C)C[C@H](C)C/C=C/[C@@H](C)[C@@H](O)[C@@H](C)[C@@H](O)C[C@@H]1CC[C@@](C)([C@H]2CC[C@@](C)([C@@H](C)O)O2)O1` [ionomycin]: in the assay on MCP5/L cells [1], the “Survival of mast cells treated with the compound” value is reported as “promoted mast cell survival”. Also, in the assay with A1 gene (MCP5/L cells exposed for 6 hr, c48/80 at concentrations of up to 1 mg/ml, FIG. 7), the “A1 gene expression (transcription) induced by the compound alone” value is recorded as “induced expression of A1”.

Take `O=C(O)CN(CCN(CC(=O)O)CC(=O)O)CC(=O)O` [EDTA]: the “β-hexosaminidase release following FcεRI aggregation in the presence of the compound” value with MCP5/L cells [2] is given as “inhibit release of mast cell granular enzyme β-hexosaminidase”. Further, the “A1 induction by FcεRI aggregation in the presence of inhibitor” value in the assay with A1 gene is given as “blocked A1 expression”.

Consider `C[C@@H]1C[C@@H]([C@H](O)CC2CC(=O)NC(=O)C2)C(=O)[C@@H](C)C1` [cycloheximide], for which the “A1 induction by FcεRI aggregation in the presence of inhibitor” value in the assay with A1 gene (MCP5/L cells, FcεRI crosslinkage 6 hr, wortmannin 100 nM, cyclosporin A 2 μg/ml, cycloheximide 10 μg/ml, dexamethasone 1 μM, EDTA 1 mM, FIG. 8A, 9) is listed as “could completely block A1 induction”.

These data come from patent US6465187B1, “Method of treatment” (Innoventus Project AB, priority 2000, dated 2002).
